The text below walks through data of ChEMBL document CHEMBL4028837, “Acetanilide and bromoacetyl-lysine derivatives as activators for human histone deacetylase 8” (Bioorg Med Chem Lett, 2017).

Assay [1] is filed under the species Homo sapiens. Nature of the assay: Activation of HDAC deacetylation activity in human HeLa nuclear extract at 50 uM using AMC-Fluor-de-Lys-HDAC8 as substrate measured after 5 mins by reverse phase HPLC method relative to control.
In assay [2] the target is T1, Histone deacetylase 8 (Homo sapiens) (UniProt Q9BY41).
T1 sequence (whole entry): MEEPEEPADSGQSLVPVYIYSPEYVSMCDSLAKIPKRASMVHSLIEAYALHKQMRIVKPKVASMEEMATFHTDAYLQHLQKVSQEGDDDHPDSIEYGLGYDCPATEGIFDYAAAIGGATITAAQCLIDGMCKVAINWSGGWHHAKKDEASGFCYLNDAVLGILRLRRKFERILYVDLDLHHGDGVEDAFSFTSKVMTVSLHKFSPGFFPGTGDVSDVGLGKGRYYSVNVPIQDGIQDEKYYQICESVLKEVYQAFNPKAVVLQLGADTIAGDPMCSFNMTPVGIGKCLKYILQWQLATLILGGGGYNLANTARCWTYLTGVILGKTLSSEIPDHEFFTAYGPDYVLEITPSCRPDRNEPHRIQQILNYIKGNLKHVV
As to the kind of experiment: Activation of human HDAC8 deacetylation activity at 50 uM using AMC less CH3CONH-FG-(Nepsilon-acetyl-lysine)-FSW-CONH2 as substrate measured after 10 mins by reverse phase HPLC method relative to control.

In assay [3] the target is T1, Histone deacetylase 8 (Homo sapiens). Nature of the assay: Activation of human HDAC8 deacetylation activity at 50 uM using AMC-Fluor-de-Lys-HDAC8 as substrate measured after 10 mins by reverse phase HPLC method relative to control.
Assay [4] is filed under the species Homo sapiens. As to the kind of experiment: Activation of HDAC deacetylation activity in human HeLa nuclear extract at 50 uM using AMC less CH3CONH-RH-(Nepsilon-acetyl-lysine)-(Nepsilon-acetyl-lysine)-CONH2 as substrate measured after 10 mins by reverse phase HPLC method relative to control.
The target in assay [5] is T1, Histone deacetylase 8 (Homo sapiens). Nature of the assay: Activation of human HDAC8 deacetylation activity assessed as decrease in substrate Kcat at 50 uM using AMC less CH3CONH-FG-(Nepsilon-acetyl-lysine)-FSW-CONH2 as substrate measured after 1.5 mins by reverse phase HPLC method relative to control. Further details: scale not given: the % may be the effect or the level left.

The target is the same in assay [6]. As to the kind of experiment: Activation of human HDAC8 deacetylation activity assessed as reduction in substrate Km at 50 uM using AMC-Fluor-de-Lys-HDAC8 as substrate measured after 1.5 mins by reverse phase HPLC method relative to control.
Assay [7] has the same target. Nature of the assay: Activation of human HDAC8 deacetylation activity assessed as reduction in substrate Kcat at 50 uM using AMC-Fluor-de-Lys-HDAC8 as substrate measured after 1.5 mins by reverse phase HPLC method relative to control.
Assay [8] shares this target. Nature of the assay: Activation of human HDAC8 deacetylation activity assessed as ratio of Kcat to Km for substrate at 50 uM using AMC less CH3CONH-FG-(Nepsilon-acetyl-lysine)-FSW-CONH2 as substrate measured after 1.5 mins by reverse phase HPLC method relative to control.
Assay [9] shares this target. As to the kind of experiment: Activation of human HDAC8 deacetylation activity assessed as ratio of Kcat to Km for substrate at 50 uM using AMC-Fluor-de-Lys-HDAC8 as substrate measured after 1.5 mins by reverse phase HPLC method relative to control.
Assay [10] shares this target. Nature of the assay: Activation of human HDAC8 deacetylation activity assessed as reduction in substrate Km at 50 uM using AMC less CH3CONH-FG-(Nepsilon-acetyl-lysine)-FSW-CONH2 as substrate measured after 1.5 mins by reverse phase HPLC method relative to control.

Molecules are shown by their SMILES. A value given as a limit tells only on which side of the number the result lay.

For the compound `O=C(Nc1cccc(C(F)(F)F)c1)C(F)(F)F`, the fold change (FC) in the assay listed under Homo sapiens [1] turned out to be 0.96; in assay [2], 2.7; in assay [3] it was 1.7; in the assay listed under Homo sapiens [4], 0.54.
`CC(C)(C)OC(=O)N[C@@H](CCCCNC(=O)CBr)C(=O)Nc1ccccc1`: the fold change (FC) in the assay listed under Homo sapiens [1] was found to be 1.09; in assay [6] it was 3.5; in assay [7], 13; in assay [8] it was 2.6; in assay [9], 3.7; in assay [10] it was 3.6. The fold change (FC) in assay [2] is 5.6; in assay [3], 2.8; in the assay filed under Homo sapiens [4] it was 1.22. The Activity in assay [5] is under 40%.
`CC(=O)Nc1ccccc1C(F)(F)F`: the fold change (FC) in the assay listed under Homo sapiens [1] came out at 0.98; in assay [2], 1.5; in assay [3] it was 1.2; in the assay filed under Homo sapiens [4], 1.45.
On the same counts, the results for `O=C(Nc1ccc(C(F)(F)F)cc1)C(F)(F)F` are 0.93, 1.4, 1.1 and 0.64.
Taken in the same sequence, the figures for `CC(=O)Nc1ccc(C(F)(F)F)cc1` were 0.93, 1.4, 1.7 and 0.83.
On the same counts, the results for `O=C(NC(=S)Nc1ccccc1)c1ccccc1` are 0.69, 0.5, 2.2 and 0.58.
Regarding `O=C(Nc1ccccc1C(F)(F)F)C(F)(F)F`, the fold change (FC) in the assay listed under Homo sapiens [1] was 0.87; in assay [2], 1.2; in [3], 1.4; in the assay listed under Homo sapiens [4], 1.22.
As for `CC(=O)Nc1cccc(C(F)(F)F)c1`, the fold change (FC) came out at 0.89 in the assay listed under Homo sapiens [1], 1.3 in assay [2], 1.7 in [3] and 0.81 in the assay listed under Homo sapiens [4].
